# In US10662203B2, “Pyrido[2,3-b]indole compounds for the treatment and prophylaxis of bacterial infection” (Hoffmann-La Roche Inc., priority 2017, dated 2020):
# Experiments:
# Test in all cases: 50% growth inhibitory concentration (IC50) determination assay
# Type in all cases: cell-based
# A. baumannii (ATCC17978) = conditions: Acinetobacter baumannii, ATCC17978, A. baumannii ATCC17978; Iso-Sensitest broth; 0.098 = detection limit
# Procedure: (§1) Stock compounds in DMSO were serially two-fold diluted (range from 50 to 0.097 μM final concentration) in 384 wells microtiter plates and inoculated with 49 μL the bacterial suspension in Iso-Sensitest broth medium to have a final cell concentration of ˜5×10^5 CFU/mL in a final volume/well of 50 μL/well. Microtiter plates were incubated at 35±2° C. Bacterial cell growth was determined with the measurement of optical density at λ=600 nm each 20 minutes over a time course of 16 h. […] GP-6 (Example 4.131 disclosed in WO 2012/125746 A1) was used as the reference compound in Table 6-8. […] The data of IC50 over S. aureus (ATCC29213), K. pneumoniae (ATCC10031), and A. baumannii (ATCC17978) are illustrated in Table 6.
# [1] = tested on: K. pneumoniae (ATCC10031); conditions: Klebsiella pneumoniae, Iso-Sensitest broth, 0.098 = detection limit
# Procedure: as §1
# S. aureus (ATCC29213) = conditions: Staphylococcus aureus, Iso-Sensitest broth, 0.098 = detection limit
# Procedure: as §1
SMILES,IC50 (A. baumannii (ATCC17978)),IC50 [1],IC50 (S. aureus (ATCC29213))
CNc1cc(F)c(F)c2c1[nH]c1ncc(-c3cnc4c(c3)c(=O)c(C(=O)O)cn4C)c(N3CCOC(COC)C3)c12 (stereo not shown) [Example 1.10],0.192 µM,–,–
CNc1cc(F)cc2c1[nH]c1ncc(-c3cnc4c(c3)c(=O)c(C(=O)O)cn4C)c(N3CCC(N(C)C4CC4)C3)c12 (stereo not shown) [Example 1.118],0.521 µM,–,–
CNc1cc(F)c(F)c2c1[nH]c1ncc(-c3cnc4c(c3)c(=O)c(C(=O)O)cn4C)c(N3CCC(O)(C(F)(F)F)C3)c12 (stereo not shown) [Example 1.129],0.302 µM,–,< 0.098 µM
CNc1cc(F)c(F)c2c1[nH]c1ncc(-c3cnc4c(c3)c(=O)c(C(=O)O)cn4C)c(N3C[C@H](F)[C@@H](N(C)C)C3)c12 [Example 1.159],0.189 µM,–,–
CNc1cc(Cl)cc2c1[nH]c1ncc(-c3cnc4c(c3)c(=O)c(C(=O)O)cn4C)c(N3CC4[C@H](CC[C@H]4N(C)C)C3)c12 (stereo partly shown) [Example 1.285],0.253 µM,–,–
CNc1cc(F)c(F)c2c1[nH]c1ncc(-c3cnc4c(c3)c(=O)c(C(=O)O)cn4C)c(N3CC4[C@H](CC[C@@H]4N(C)C)C3)c12 (stereo partly shown) [Example 1.288],0.269 µM,–,–
CNc1cc(Cl)cc2c1[nH]c1ncc(-c3cnc4c(c3)c(=O)c(C(=O)O)cn4NC)c(N3CC[C@H]4CN(C)C[C@H]43)c12 [Example 3.12A],0.081 µM,–,–
"CNc1cc(F)c(F)c2c1[nH]c1ncc(-c3cnc4c(c3)c(=O)c(C(=O)O)cn4C)c(N3CCN[C@H](C(F)(F)F)C3)c12 [Example 4.01A, (S)-6-(5,6-Difluoro-8-(methylamino)-4-(3-(trifluoromethyl)piperazin-1-yl)-9H-pyrido[2,3-b]indol-3-yl)-1-methyl-4-oxo-1,4-dihydro-1,8-naphthyridine-3-carboxylic acid]",0.393 µM,–,–

# Further lines, results first:
IC50 (A. baumannii (ATCC17978)),IC50 [1],IC50 (S. aureus (ATCC29213)),SMILES
< 0.098 µM,< 0.098 µM,< 0.098 µM,"CNc1cc(F)c(F)c2c1[nH]c1ncc(-c3cnc4c(c3)c(=O)c(C(=O)O)cn4C)c(N(C)C)c12 [Example 1.01, 6-[4-(Dimethylamino)-5,6-difluoro-8-(methylamino)-9H-pyrido[2,3-b]indol-3-yl]-1-methyl-4-oxo-1,8-naphthyridine-3-carboxylic acid]"
0.242 µM,–,< 0.098 µM,CNc1cc(F)c(F)c2c1[nH]c1ncc(-c3cnc4c(c3)c(=O)c(C(=O)O)cn4Cc3ccncc3)c(N(C)C)c12 [Example 1.30]
0.355 µM,–,–,CNc1cc(F)c(F)c2c1[nH]c1ncc(-c3cnc4c(c3)c(=O)c(C(=O)O)cn4C)c(N3CCC(N(C)C4CC4)C3)c12 (stereo not shown) [Example 1.116]
0.164 µM,–,–,CNc1cc(F)c(Cl)c2c1[nH]c1ncc(-c3cnc4c(c3)c(=O)c(C(=O)O)cn4C)c(N(C)C)c12 [Example 1.117]
0.201 µM,–,–,CNc1cc(F)c(F)c2c1[nH]c1ncc(-c3cnc4c(c3)c(=O)c(C(=O)O)cn4NC)c(N3CC[C@@H](N(C)C)C3)c12 [Example 1.257]
0.502 µM,–,–,CNc1cc(F)c(F)c2c1[nH]c1ncc(-c3cnc4c(c3)c(=O)c(C(=O)O)cn4C)c(N3CC4C(O)CO[C@@H]4C3)c12 (stereo partly shown) [Example 1.287]
0.122 µM,–,–,CNc1cc(Cl)cc2c1[nH]c1ncc(-c3cnc4c(c3)c(=O)c(C(=O)O)cn4C)c(N3CC[C@H]4CN(C)C[C@H]43)c12 [Example 3.11A]
0.149 µM,–,–,CNc1cc(Cl)cc2c1[nH]c1ncc(-c3cnc4c(c3)c(=O)c(C(=O)O)cn4C)c(N3C[C@H]4CC[C@H](N(C)C)[C@H]4C3)c12 [Example 3.20A]
0.252 µM,–,–,CNc1cc(Cl)cc2c1[nH]c1ncc(-c3cnc4c(c3)c(=O)c(C(=O)O)cn4C)c(N3C[C@@H]4CC[C@H](N(C)C)[C@@H]4C3)c12 [Example 3.20B]
0.352 µM,–,–,"CNc1cc(F)c(F)c2c1[nH]c1ncc(-c3cnc4c(c3)c(=O)c(C(=O)O)cn4C)c(N3CCN[C@@H](C(F)(F)F)C3)c12 [Example 4.01B, (R)-6-(5,6-Difluoro-8-(methylamino)-4-(3-(trifluoromethyl)piperazin-1-yl)-9H-pyrido[2,3-b]indol-3-yl)-1-methyl-4-oxo-1,4-dihydro-1,8-naphthyridine-3-carboxylic acid]"
